Source: patent publication US20080075796A1, “Compositions and Methods for Controlling Insects” (TyraTech, Inc., priority 2003, published 2008)
Several values for one entry are separate records, joined by “and”; a condition that tells them apart may be missing. Equal values may be shown once.

Columns and labels:
[1] = target: T1, Or43a receptor (Drosophila melanogaster, UniProt P81917, L154V); experiment: Intracellular Ca^2+ mobilization in Schneider cells expressing Or43a receptor; format: cell-based
T1 construct: His (from vector pAc5.1/V5-His B) (C); expressed in transfected cells
T1 sequence (P81917 whole entry L154V): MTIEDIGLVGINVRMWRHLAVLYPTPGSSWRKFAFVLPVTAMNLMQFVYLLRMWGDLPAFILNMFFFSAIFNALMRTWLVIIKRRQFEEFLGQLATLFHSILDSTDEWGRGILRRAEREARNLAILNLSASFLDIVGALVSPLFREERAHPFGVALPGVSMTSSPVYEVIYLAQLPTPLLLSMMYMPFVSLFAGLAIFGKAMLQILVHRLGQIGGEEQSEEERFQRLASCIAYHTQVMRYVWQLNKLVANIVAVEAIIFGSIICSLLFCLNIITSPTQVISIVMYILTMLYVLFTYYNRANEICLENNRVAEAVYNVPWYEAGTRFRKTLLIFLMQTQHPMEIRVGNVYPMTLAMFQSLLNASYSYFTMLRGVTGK
Procedure: Intracellular calcium ion concentrations ([Ca^2+]i) are measured by using the acetoxymethyl (AM) ester of the fluorescent indicator fura-2 (Enan, et al., Biochem. Pharmacol vol 51, 447-454). In this study, cells expressing tyramine receptor are grown under standard conditions. A cell suspension is prepared in assay buffer (140 mM NaCL, 10 mM HEPES, 10 mM glucose, 5 mM KCl, 1 mM CaCl2, 1 mM MgCl2) and cell number adjusted to about 2×10^6 cells per ml. Briefly, about 1.0 ml cell suspension (about 2×10^6 cells) is incubated with about 5 μM Fura 2/AM for about 30 min at about 28° C. After incubation, the cells are pelleted at about 3700 rpm for about 10 sec at room temperature and then resuspended in about 1.5 ml assay buffer. [Ca^2+]i changes are analyzed in spectrofluorometer in the presence and absence of test chemicals. Excitation wave lengths are about 340 nm (generated by Ca^2+-bound fura-2) and about 380 nm (corresponding to Ca^2+-free fura-2). The fluorescence intensity is monitored at an emission wave length of about 510 nm. No absorbance of fluorescence artifacts are observed with any of the compounds used. The ratio of about 340/380 nm is calculated and plotted as a function of time.
Intracellular Ca^2+ levels are measured using the method described above in Example 3.
Changes in intracellular Ca^2+ levels are calculated based on the difference between the 340/380 fluorescence ratios before and after approximately 150 seconds of the treatment.

[2] = target: T2, tyramine receptor (TyrR) (Drosophila melanogaster, UniProt P22270); settings: displacement of about 2 nM ^3H-tyramine
T2 sequence (P22270 27-601): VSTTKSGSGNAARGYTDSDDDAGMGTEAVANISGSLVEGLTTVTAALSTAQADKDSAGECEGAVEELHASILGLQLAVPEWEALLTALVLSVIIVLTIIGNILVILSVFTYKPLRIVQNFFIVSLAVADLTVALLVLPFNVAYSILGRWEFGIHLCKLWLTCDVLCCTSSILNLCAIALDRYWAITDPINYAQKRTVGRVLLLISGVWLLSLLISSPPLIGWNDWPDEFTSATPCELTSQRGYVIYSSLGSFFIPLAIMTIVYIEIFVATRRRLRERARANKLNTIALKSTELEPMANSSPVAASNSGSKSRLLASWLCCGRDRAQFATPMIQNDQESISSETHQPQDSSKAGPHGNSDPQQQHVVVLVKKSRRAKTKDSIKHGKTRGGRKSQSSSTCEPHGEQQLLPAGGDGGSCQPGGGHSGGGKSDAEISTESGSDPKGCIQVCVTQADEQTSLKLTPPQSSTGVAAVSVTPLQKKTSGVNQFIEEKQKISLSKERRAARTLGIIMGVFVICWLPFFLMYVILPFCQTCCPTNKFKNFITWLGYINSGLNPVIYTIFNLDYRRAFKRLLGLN
Procedure: A preliminary study to determine the optimum concentration of membrane protein for receptor binding activity is performed. […] After about 1 hr incubation at room temperature, reactions are terminated by filtration through GF/C filters (VWR), which have been previously soaked in about 0.3% polyethyleneimine (PEI). The filters are washed one time with about 4 ml ice cold Iris buffer and air dried before the retained radioactivity is measured using LSC. Binding data is analyzed by curve fitting (GraphPad software, Prism).
Receptor binding reactions are incubated for about 1 hr at room temperature (RT) in restricted light. Reactions are terminated by filtration through OF/C filters (VWR), which have been previously soaked in about 0.3% polyethyleneimine (PEI). The filters are washed one time with about 4 ml ice cold Tris buffer and air dried before retained radioactivity is measured using LSC. Binding data is analyzed by curve fitting (GraphPad software, Prism).

[3] = target: T2, tyramine receptor (TyrR); experiment: cAMP levels in Schneider cells expressing tyramine receptor; format: cell-based; parameters: oligonucleotides that are used to amplify the open reading frame of the Drosophila tyramine receptor (TyrR); expressed in transfected cells
Procedure: Cells are grown on dishes and the media changed the day before the treatment. When cells are approximately 95% confluent, media is aspirated and the cells are washed one time with about 5 mL of about 27° C. insect saline (170 mM NaCl, 6.0 mM KCl, 2.0 mM NaHCO3, 17.0 mM glucose, 6.0 mM NaH2PO4, 2.0 mM CaCl2, 4.0 mM MgCl2; pH 7.0). About 20 mL of insect saline is added, and cells are harvested by gentle scraping. An aliquot of the cells is counted by hemocytometer, and the cells are then centrifuged for about 5 minutes at about 1000 RPM. Cells are resuspended to give about 3×10^6 cells per mL. IBMX is added to about 200 μM. Then about 1 mL of cell suspension is aliquoted for treatment. Forskolin (cAMP inducing agent), tyramine or different composition candidates are added, and the cells are incubated at about 27° C. for about 10 minutes.
Treated cells are centrifuged at about 13000 g for about 10 seconds. The solution is aspirated and about 1 mL of about −20° C. 70% ethanol is added. The cell pellet is disrupted by vortexing and the samples placed at about −20° C. overnight. Following the ethanol extraction, cellular debris is pelleted by centrifugation at about 13000 g for about 5 minutes. The supernatant is transferred to a tube and lyophilized to dryness in a rotary speed-vac. […]
The cAMP assay is based on competition binding between endogenous cAMP and ^3H-cAMP to a cAMP binding protein. […] About 200 μL of the reaction mixture is removed and levels of ^3H-cAMP are determined by scintillation counting. Levels of endogenous cAMP from the cells are calculated using a standard curve with cold cAMP ranging from about 0 to 16 pmol per reaction.
To examine test chemical-dependent coupling of the tyramine receptor, pAcB-TyrR is stably expressed in Schneider cells. Transfected and untransfected cells are treated with tyramine (about 10 μM), LFO (about 25 μg/ml) and BSO (about 25 μg/ml) in the presence and absence of forskolin (FK) (about 10 μM). cAMP production is measured using the ^3H-cAMP assay kit (Amersham) as described above.

## NCCc1ccc(O)cc1 [tyramine]
[1]; before vs approximately 150 seconds after treatment
  change in intracellular Ca^2+ levels (340/380 fluorescence ratio): only negligibly
[1]; ionomycin about 2 μM, tyramine about 10 μM
  increase in intracellular calcium: ~3.5 fold
[2]; EC50 (concentration at which binding is inhibited by 50%)
  EC50: ~305 nM and 305 nM
[2]; Ki
  Ki: ~127 nM and 127 nM
[3]; forskolin about 10 μM
  effect on cAMP in the presence of forskolin: significantly antagonizes forskolin-stimulated cAMP levels
[3]; tyramine about 10 μM, LFO and BSO about 25 μg/ml, without forskolin
  decrease in cAMP level: about 10%
